Source: PubChem BioAssay (NCI)
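Compound exposure: 48 hours, 5 concentrations, 96-well plates. GI50 is the concentration that inhibits growth by half. The concentration for full growth arrest is given as TGI.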

What was measured:
Assay in all cases: DTP human tumour cell line panel, 48 h
DU-145 prostate = test system: DU-145 prostate
EKVX NSCLC = test system: EKVX NSCLC
HL-60(TB) leukemia = test system: HL-60(TB) leukemia
HOP-92 NSCLC = test system: HOP-92 NSCLC
K-562 leukemia = test system: K-562 leukemia
MDA-N = test system: MDA-N
NCI-H522 lung = test system: NCI-H522 lung
OVCAR-4 ovarian = test system: OVCAR-4 ovarian
OVCAR-8 ovarian = test system: OVCAR-8 ovarian
T-47D breast = test system: T-47D breast

Structure (SMILES): CC(C)(C)OC(=O)/N=C/c1c(O)c2ccccc2oc1=O
- TGI (DU-145 prostate): > 100 µM
- TGI (EKVX NSCLC): > 100 µM
- TGI (HL-60(TB) leukemia): > 100 µM
- TGI (HOP-92 NSCLC): > 100 µM
- TGI (K-562 leukemia): > 100 µM
- TGI (MDA-N): > 100 µM
- TGI (NCI-H522 lung): 0.0208 µM
- TGI (OVCAR-4 ovarian): > 100 µM
- TGI (OVCAR-8 ovarian): > 100 µM
- TGI (T-47D breast): > 100 µM

Structure (SMILES): CCN(CC)/[N+]([O-])=N/OS(=O)(=O)N(C)C
- TGI (DU-145 prostate): > 100 µM
- TGI (EKVX NSCLC): > 100 µM
- TGI (HL-60(TB) leukemia): > 100 µM
- TGI (HOP-92 NSCLC): > 100 µM
- TGI (K-562 leukemia): > 100 µM
- TGI (MDA-N): > 100 µM
- TGI (NCI-H522 lung): > 100 µM
- TGI (OVCAR-4 ovarian): > 100 µM
- TGI (OVCAR-8 ovarian): > 100 µM
- TGI (T-47D breast): > 100 µM

Structure (SMILES): COc1ccc(OC/C(N)=N/NC(=O)c2ccncc2)cc1
- TGI (DU-145 prostate): > 100 µM
- TGI (EKVX NSCLC): > 100 µM
- TGI (HL-60(TB) leukemia): > 100 µM
- TGI (HOP-92 NSCLC): > 100 µM
- TGI (K-562 leukemia): > 100 µM
- TGI (MDA-N): > 100 µM
- TGI (NCI-H522 lung): > 100 µM
- TGI (OVCAR-4 ovarian): > 100 µM
- TGI (OVCAR-8 ovarian): > 100 µM
- TGI (T-47D breast): > 100 µM

Structure (SMILES): NCCc1ccc(S(=O)(=O)O)cc1[N+](=O)[O-]
- TGI (DU-145 prostate): > 100 µM
- TGI (EKVX NSCLC): > 100 µM
- TGI (HL-60(TB) leukemia): > 100 µM
- TGI (HOP-92 NSCLC): > 100 µM
- TGI (K-562 leukemia): > 100 µM
- TGI (MDA-N): > 100 µM
- TGI (NCI-H522 lung): > 100 µM
- TGI (OVCAR-4 ovarian): > 100 µM
- TGI (OVCAR-8 ovarian): > 100 µM
- TGI (T-47D breast): > 100 µM

Structure (SMILES): CN(CC(=O)Nc1ccccc1C(=O)O)c1ccccc1
- TGI (DU-145 prostate): > 100 µM
- TGI (EKVX NSCLC): > 100 µM
- TGI (HL-60(TB) leukemia): > 100 µM
- TGI (HOP-92 NSCLC): > 100 µM
- TGI (K-562 leukemia): > 100 µM
- TGI (MDA-N): > 100 µM
- TGI (NCI-H522 lung): > 100 µM
- TGI (OVCAR-4 ovarian): > 100 µM
- TGI (OVCAR-8 ovarian): > 100 µM
- TGI (T-47D breast): > 100 µM

Structure (SMILES): CC1C(OS(=O)(=O)c2ccc3[nH]c(=S)sc3c2)CC2C3(C)CCC2(C(C)C(=O)O)C(O)C13 (stereo not given)
- TGI (DU-145 prostate): 40.4 µM
- TGI (EKVX NSCLC): > 100 µM
- TGI (HL-60(TB) leukemia): 58 µM
- TGI (HOP-92 NSCLC): > 100 µM
- TGI (K-562 leukemia): > 100 µM
- TGI (MDA-N): 69.8 µM
- TGI (NCI-H522 lung): 17.2 µM
- TGI (OVCAR-4 ovarian): 94.2 µM
- TGI (OVCAR-8 ovarian): 54.6 µM
- TGI (T-47D breast): 48.3 µM

Structure (SMILES): N/C(=N\N=C\c1nc2ccccc2o1)c1cnccn1
- TGI (DU-145 prostate): > 100 µM
- TGI (EKVX NSCLC): > 100 µM
- TGI (HL-60(TB) leukemia): > 100 µM
- TGI (HOP-92 NSCLC): > 100 µM
- TGI (K-562 leukemia): > 100 µM
- TGI (MDA-N): > 100 µM
- TGI (NCI-H522 lung): > 100 µM
- TGI (OVCAR-4 ovarian): > 100 µM
- TGI (OVCAR-8 ovarian): > 100 µM
- TGI (T-47D breast): > 100 µM

Structure (SMILES): COC(=O)c1c(C)cccc1C1CN=NC12Cc1cc(C)c(C)cc1C2=O (stereo not given)
- TGI (DU-145 prostate): > 100 µM
- TGI (EKVX NSCLC): > 100 µM
- TGI (HL-60(TB) leukemia): 45.5 µM
- TGI (HOP-92 NSCLC): > 100 µM
- TGI (K-562 leukemia): > 100 µM
- TGI (MDA-N): 99.5 µM
- TGI (NCI-H522 lung): 54.6 µM
- TGI (OVCAR-4 ovarian): > 100 µM
- TGI (OVCAR-8 ovarian): > 100 µM
- TGI (T-47D breast): > 100 µM

Structure (SMILES): CCc1nc(N)nc(N)c1-c1ccc(N2CCOCC2)c(N=[N+]=[N-])c1
- TGI (DU-145 prostate): > 100 µM
- TGI (EKVX NSCLC): > 100 µM
- TGI (HL-60(TB) leukemia): > 79.2 µM
- TGI (HOP-92 NSCLC): > 100 µM
- TGI (K-562 leukemia): > 90.6 µM
- TGI (MDA-N): > 100 µM
- TGI (NCI-H522 lung): 37.9 µM
- TGI (OVCAR-4 ovarian): > 100 µM
- TGI (OVCAR-8 ovarian): > 100 µM
- TGI (T-47D breast): > 100 µM

Structure (SMILES): Cc1cnc2[nH]c(-c3cccc4ccccc34)cc(=O)c2c1
- TGI (DU-145 prostate): > 100 µM
- TGI (EKVX NSCLC): > 100 µM
- TGI (HL-60(TB) leukemia): 0.000577 µM
- GI50 (HOP-92 NSCLC): 0.0464 µM
- TGI (HOP-92 NSCLC): 33.5 µM
- TGI (K-562 leukemia): > 100 µM
- TGI (MDA-N): 0.000572 µM
- TGI (NCI-H522 lung): 0.00072 µM
- TGI (OVCAR-4 ovarian): > 100 µM
- TGI (OVCAR-8 ovarian): 0.108 µM
- TGI (T-47D breast): > 100 µM

Structure (SMILES): O=C(Nc1ccc(Cl)cc1Cl)C1C(=O)OC2(CCCCC2)OC1=O
- TGI (DU-145 prostate): 28.7 µM
- TGI (EKVX NSCLC): 32.3 µM
- TGI (HL-60(TB) leukemia): 29.9 µM
- TGI (HOP-92 NSCLC): 28.1 µM
- TGI (K-562 leukemia): 43.1 µM
- TGI (MDA-N): 61.2 µM
- TGI (NCI-H522 lung): 52.5 µM
- TGI (OVCAR-4 ovarian): > 100 µM
- TGI (OVCAR-8 ovarian): 39.6 µM
- TGI (T-47D breast): 62.2 µM

Structure (SMILES): NS(=O)(=O)c1c(O)c2ccccc2oc1=O
- TGI (DU-145 prostate): > 100 µM
- TGI (EKVX NSCLC): > 100 µM
- TGI (HL-60(TB) leukemia): > 100 µM
- TGI (HOP-92 NSCLC): > 100 µM
- TGI (K-562 leukemia): > 100 µM
- TGI (MDA-N): > 100 µM
- TGI (NCI-H522 lung): > 100 µM
- TGI (OVCAR-4 ovarian): > 100 µM
- TGI (OVCAR-8 ovarian): > 100 µM
- TGI (T-47D breast): > 100 µM

Structure (SMILES): Cc1ccc2c(c1C)CC1(Cc3ccc(C)c(C)c3C1=O)C2=O (stereo not given)
- TGI (DU-145 prostate): > 100 µM
- TGI (EKVX NSCLC): > 100 µM
- TGI (HL-60(TB) leukemia): > 100 µM
- TGI (HOP-92 NSCLC): 87 µM
- TGI (K-562 leukemia): > 100 µM
- TGI (MDA-N): > 100 µM
- TGI (NCI-H522 lung): > 100 µM
- TGI (OVCAR-4 ovarian): > 100 µM
- TGI (OVCAR-8 ovarian): > 100 µM
- TGI (T-47D breast): > 100 µM

Structure (SMILES): O=C(/C=C/c1ccccc1)CCN1CCCCC1
- TGI (DU-145 prostate): > 100 µM
- TGI (EKVX NSCLC): > 100 µM
- TGI (HL-60(TB) leukemia): > 100 µM
- TGI (HOP-92 NSCLC): > 100 µM
- TGI (K-562 leukemia): > 100 µM
- TGI (MDA-N): 60.1 µM
- TGI (NCI-H522 lung): 47.4 µM
- TGI (OVCAR-4 ovarian): > 100 µM
- TGI (OVCAR-8 ovarian): 38.4 µM
- TGI (T-47D breast): > 100 µM

Structure (SMILES): CCCN1C(=O)CN(S(=O)(=O)c2ccc(Cl)cc2)C1=O
- TGI (DU-145 prostate): > 100 µM
- TGI (EKVX NSCLC): > 100 µM
- TGI (HL-60(TB) leukemia): > 100 µM
- TGI (HOP-92 NSCLC): > 100 µM
- TGI (K-562 leukemia): > 100 µM
- TGI (MDA-N): > 100 µM
- TGI (NCI-H522 lung): > 100 µM
- TGI (OVCAR-4 ovarian): > 100 µM
- TGI (T-47D breast): > 100 µM

Structure (SMILES): O[C@@H]1[C@H](OC2c3ccccc3-c3ccccc32)[C@H](OCc2ccccc2)[C@@H]2OC[C@H]1O2
- TGI (DU-145 prostate): > 100 µM
- TGI (EKVX NSCLC): > 100 µM
- TGI (HL-60(TB) leukemia): > 100 µM
- TGI (HOP-92 NSCLC): > 100 µM
- TGI (K-562 leukemia): > 100 µM
- TGI (MDA-N): > 100 µM
- TGI (NCI-H522 lung): > 100 µM
- TGI (OVCAR-4 ovarian): > 100 µM
- TGI (OVCAR-8 ovarian): > 100 µM
- TGI (T-47D breast): > 100 µM
